Test results from US20250205344A1, “2,4-DIOXOTETRAHYDROPYRIMIDINYL DERATIVES AS DEGRONS IN PROTACS” (GLAXOSMITHKLINE INTELLECTUAL PROPERTY DEVELOPMENT LIMITED, priority 2022, published 2025).
Structures can show the parent of a compound that is named as a salt.

Molecular target: T1, Androgen Receptor (Homo sapiens, UniProt P10275, T878A)
T1 construct: the AR gene was modified, using CRISPR/Cas9 editing, so the expressed AR protein included an 11 amino acid HiBiT tag; endogenous in cells; host or cells: clonal LnCaP-derived line, AR gene edited by CRISPR/Cas9
Experiment: Androgen Receptor Degradation Assay (Nano-Glo HiBiT)
Type: cell-based
Conditions: LNCaP, 18 h, HiBiT-tagged AR in human LnCaP cells, read-out: mean asymptote max
Description: Degradation of Androgen Receptor protein in human LnCaP cells treated with PROTACs was quantified using the Nano-Glo® HiBiT Lytic Detection System (Promega) in 384 well assay plate format. A clonal LnCaP derived cell line was first established in which the AR gene was modified, using CRISPR/Cas9 editing, so the expressed AR protein included an 11 amino acid HiBiT tag at its amino-terminus. 10 mM DMSO stock solutions of PROTACs were prepared and diluted across an 11 concentration, 3 fold increment range, and 25 nL dispensed into a white opaque bottomed 384 well assay plate (Thermofisher) using an acoustic ECHO dispenser (Labcyte). […] For the assay, cells were detached from flask and resuspended with assay medium (FluoroBrite™ DMEM supplemented with 10% heat inactivated FBS, penicillin 50 U/mL and streptomycin 50 ug/mL (Thermofisher)). The cell suspension was centrifuged at 400 g for 5 min and the pellet resuspended in assay medium. 25 μL of cell suspension containing 10,000 cells was dispensed into each well of the assay plate containing the test compounds, which was then incubated for 18 h at 37° C./5% CO2. Control wells were included on each assay plate, with assay medium without cells being the no AR remaining 100% effect control, and cells treated with DMSO vehicle only, without PROTAC, the 0% effect control. 25 μL of Nano-Glo® HiBiT lysis buffer supplemented with LgBiT protein and Nano-Glo® substrate (Promega) was added to each well and the plate shaken at 500 rpm for 10 min at room temperature. The intensity of luminescence was measured using a PHERAstar microplate reader (BMG Labtech) and the % AR protein remaining in each well calculated by normalising the raw luminescence value to the above control wells. Parameters corresponding to the potency and efficacy estimates of the PROTACs were obtained from these normalised luminescence values using software (IDBS ActivityBase). These included the DC50 and the Dmax estimates. Two versions of the DC50, called relative DC50 and absolute DC50, were typically generated. These are the inflection point of a fitted 4 parameter sigmoidal response curve and the interpolated concentration of PROTAC corresponding to 50% of the protein being degraded, respectively. The Dmax parameter was the maximum experimentally observed degradation and the asymptote max parameter the fitted response curve asymptote maximum.

T1 sequence (P10275 whole entry T878A): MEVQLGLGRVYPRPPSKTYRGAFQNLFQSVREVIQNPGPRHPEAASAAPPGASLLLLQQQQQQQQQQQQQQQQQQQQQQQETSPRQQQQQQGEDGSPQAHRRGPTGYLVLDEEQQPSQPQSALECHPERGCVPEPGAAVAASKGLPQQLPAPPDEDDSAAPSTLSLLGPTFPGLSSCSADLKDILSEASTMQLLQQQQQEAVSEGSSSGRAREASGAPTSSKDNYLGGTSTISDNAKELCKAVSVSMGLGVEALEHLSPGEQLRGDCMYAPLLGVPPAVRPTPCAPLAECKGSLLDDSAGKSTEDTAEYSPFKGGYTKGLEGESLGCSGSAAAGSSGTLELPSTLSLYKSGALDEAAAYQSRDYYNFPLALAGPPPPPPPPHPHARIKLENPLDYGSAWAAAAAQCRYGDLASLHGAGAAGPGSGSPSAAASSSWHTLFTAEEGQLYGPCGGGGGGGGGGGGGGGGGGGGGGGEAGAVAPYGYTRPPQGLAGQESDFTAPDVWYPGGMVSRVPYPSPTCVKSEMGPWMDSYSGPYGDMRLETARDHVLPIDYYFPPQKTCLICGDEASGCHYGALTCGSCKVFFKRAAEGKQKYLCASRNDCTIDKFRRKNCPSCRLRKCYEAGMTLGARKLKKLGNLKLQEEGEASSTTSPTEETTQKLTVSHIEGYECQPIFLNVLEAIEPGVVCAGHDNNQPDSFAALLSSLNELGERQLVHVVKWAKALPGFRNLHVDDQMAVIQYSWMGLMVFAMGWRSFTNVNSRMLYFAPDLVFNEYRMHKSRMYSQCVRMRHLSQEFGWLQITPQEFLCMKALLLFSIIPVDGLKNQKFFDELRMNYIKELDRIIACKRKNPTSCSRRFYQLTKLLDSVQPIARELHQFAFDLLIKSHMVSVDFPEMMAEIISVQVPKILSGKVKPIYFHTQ
T1 sequence (Q96SW2 whole entry partner): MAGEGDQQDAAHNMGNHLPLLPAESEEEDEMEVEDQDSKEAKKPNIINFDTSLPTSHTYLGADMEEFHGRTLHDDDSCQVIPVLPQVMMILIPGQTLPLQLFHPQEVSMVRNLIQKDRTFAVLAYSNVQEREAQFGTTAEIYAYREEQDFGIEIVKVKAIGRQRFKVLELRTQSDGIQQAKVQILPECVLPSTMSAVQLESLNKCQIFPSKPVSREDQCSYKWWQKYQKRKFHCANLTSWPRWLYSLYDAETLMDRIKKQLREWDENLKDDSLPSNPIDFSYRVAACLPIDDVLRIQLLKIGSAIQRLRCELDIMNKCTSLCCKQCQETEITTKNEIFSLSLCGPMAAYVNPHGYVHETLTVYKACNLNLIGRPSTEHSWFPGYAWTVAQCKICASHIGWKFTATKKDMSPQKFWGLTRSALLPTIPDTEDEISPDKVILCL
T1 sequence (Q16531 whole entry partner): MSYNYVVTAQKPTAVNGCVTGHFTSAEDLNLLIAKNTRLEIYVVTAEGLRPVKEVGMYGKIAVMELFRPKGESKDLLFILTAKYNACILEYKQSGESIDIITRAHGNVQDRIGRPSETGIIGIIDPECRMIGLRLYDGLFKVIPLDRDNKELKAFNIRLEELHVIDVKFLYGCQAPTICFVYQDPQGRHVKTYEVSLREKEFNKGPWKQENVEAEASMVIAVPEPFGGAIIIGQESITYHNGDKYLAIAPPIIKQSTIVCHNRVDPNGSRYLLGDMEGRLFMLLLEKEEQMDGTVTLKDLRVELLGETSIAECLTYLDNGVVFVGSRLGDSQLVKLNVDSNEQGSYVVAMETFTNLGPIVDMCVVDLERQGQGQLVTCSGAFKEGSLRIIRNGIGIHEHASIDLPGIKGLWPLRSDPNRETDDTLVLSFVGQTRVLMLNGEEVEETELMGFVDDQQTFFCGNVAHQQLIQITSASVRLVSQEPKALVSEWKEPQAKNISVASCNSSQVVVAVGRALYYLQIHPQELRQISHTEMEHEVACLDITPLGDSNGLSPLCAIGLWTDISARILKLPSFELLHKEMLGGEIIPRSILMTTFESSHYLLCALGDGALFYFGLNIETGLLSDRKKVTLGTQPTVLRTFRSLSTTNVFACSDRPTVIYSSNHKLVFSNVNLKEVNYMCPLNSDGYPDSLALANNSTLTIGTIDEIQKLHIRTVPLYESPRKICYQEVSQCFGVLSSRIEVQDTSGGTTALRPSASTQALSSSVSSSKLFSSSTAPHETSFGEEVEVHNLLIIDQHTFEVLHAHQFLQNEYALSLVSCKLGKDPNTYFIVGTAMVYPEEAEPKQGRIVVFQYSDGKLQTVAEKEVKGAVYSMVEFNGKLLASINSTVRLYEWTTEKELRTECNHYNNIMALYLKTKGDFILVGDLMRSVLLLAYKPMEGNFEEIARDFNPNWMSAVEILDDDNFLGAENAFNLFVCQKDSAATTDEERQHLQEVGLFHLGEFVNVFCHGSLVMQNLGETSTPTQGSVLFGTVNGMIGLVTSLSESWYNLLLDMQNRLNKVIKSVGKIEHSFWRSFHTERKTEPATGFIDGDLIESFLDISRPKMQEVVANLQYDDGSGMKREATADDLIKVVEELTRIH

`N#Cc1ccc(O[C@H]2CC[C@H](NC(=O)c3cnc(N4CCC(CN5CCC(n6ncc7c(N8CCC(=O)NC8=O)cncc76)CC5)CC4)nc3)CC2)cc1Cl` [AR216, N-((1r,4r)-4-(3-chloro-4-cyanophenoxy)cyclohexyl)-2-(4-((4-(4-(2,4-dioxotetrahydropyrimidin-1(2H)-yl)-1H-pyrazolo[3,4-c]pyridin-1-yl)piperidin-1-yl)methyl)piperidin-1-yl)pyrimidine-5-carboxamide] was tested, and the Dmax was ≥ 50%.
`N#Cc1ccc(O[C@H]2CC[C@H](NC(=O)c3cnc(N4CCC(CN5CCC(n6ccc7c(N8CCC(=O)NC8=O)cccc76)CC5)CC4)cn3)CC2)cc1Cl` [EAR9, N-((1r,4r)-4-(3-Chloro-4-cyanophenoxy)cyclohexyl)-5-(4-((4-(4-(2,4-dioxotetrahydropyrimidin-1(2H)-yl)-1H-indol-1-yl)piperidin-1-yl)methyl)piperidin-1-yl)pyrazine-2-carboxamide] was tested, and the Dmax was ≥ 50%.
In the case of `CC1(C)[C@H](NC(=O)c2cnc(N3CCC(CN4CCC(n5ccc6c(N7CCC(=O)NC7=O)cccc65)CC4)CC3)nc2)C(C)(C)[C@H]1Oc1ccc(C#N)c(Cl)c1` [EAR11, N-((1r,3r)-3-(3-Chloro-4-cyanophenoxy)-2,2,4,4-tetramethylcyclobutyl)-2-(4-((4-(4-(2,4-dioxotetrahydropyrimidin-1(2H)-yl)-1H-indol-1-yl)piperidin-1-yl)methyl)piperidin-1-yl)pyrimidine-5-carboxamide], the Dmax is reported as ≥ 50%.
With `N#Cc1ccc(O[C@H]2CC[C@H](NC(=O)c3ccc(N4CCC(CN5CCC(n6ccc7c(N8CCC(=O)NC8=O)cccc76)CC5)CC4)nc3)CC2)cc1Cl` [EAR13, N-((1r,4r)-4-(3-Chloro-4-cyanophenoxy)cyclohexyl)-6-(4-((4-(4-(2,4-dioxotetrahydropyrimidin-1(2H)-yl)-1H-indol-1-yl)piperidin-1-yl)methyl)piperidin-1-yl)nicotinamide] the Dmax was ≥ 50%.
For `CC1(C)[C@H](NC(=O)c2ccc(N3CCC(CN4CCC(n5ccc6c(N7CCC(=O)NC7=O)cncc65)CC4)CC3)nc2)C(C)(C)[C@H]1Oc1ccc(C#N)c(Cl)c1` [EAR20, N-((1r,3r)-3-(3-Chloro-4-cyanophenoxy)-2,2,4,4-tetramethylcyclobutyl)-6-(4-((4-(4-(2,4-dioxotetrahydropyrimidin-1(2H)-yl)-1H-pyrrolo[2,3-c]pyridin-1-yl)piperidin-1-yl)methyl)piperidin-1-yl)nicotinamide], the Dmax was ≥ 50%.
In the case of `N#Cc1ccc(O[C@H]2CC[C@H](NC(=O)c3cnc(N4CCC(CN5CCC(n6ccc7c(N8CCC(=O)NC8=O)cccc76)CC5)CC4)cn3)CC2)cc1C(F)(F)F` [EAR22, N-((1r,4r)-4-(4-Cyano-3-(trifluoromethyl)phenoxy)cyclohexyl)-5-(4-((4-(4-(2,4-dioxotetrahydropyrimidin-1(2H)-yl)-1H-indol-1-yl)piperidin-1-yl)methyl)piperidin-1-yl)pyrazine-2-carboxamide hydrochloride], the Dmax is reported as ≥ 50%.
In the case of `N#Cc1ccc(O[C@H]2CC[C@H](NC(=O)c3ccc(N4CCC(CN5CCC(n6ccc7c(N8CCC(=O)NC8=O)cccc76)CC5)CC4)nn3)CC2)cc1Cl` [EAR23, N-((1r,4r)-4-(3-Chloro-4-cyanophenoxy)cyclohexyl)-6-(4-((4-(4-(2,4-dioxotetrahydropyrimidin-1(2H)-yl)-1H-indol-1-yl)piperidin-1-yl)methyl)piperidin-1-yl)pyridazine-3-carboxamide], the Dmax is reported as ≥ 50%.
`N#Cc1ccc(O[C@H]2CC[C@H](NC(=O)c3ccc(N4CCC(CN5CCC(n6ccc7c(N8CCC(=O)NC8=O)cccc76)CC5)CC4)nn3)CC2)cc1C(F)(F)F` [EAR24, N-((1r,4r)-4-(4-Cyano-3-(trifluoromethyl)phenoxy)cyclohexyl)-6-(4-((4-(4-(2,4-dioxotetrahydropyrimidin-1(2H)-yl)-1H-indol-1-yl)piperidin-1-yl)methyl)piperidin-1-yl)pyridazine-3-carboxamide] was tested, and the Dmax was ≥ 50%.
With `N#Cc1ccc(O[C@H]2CC[C@H](NC(=O)c3ccc(N4CCC(CN5CCC(Cn6ccc7c(N8CCC(=O)NC8=O)cccc76)CC5)CC4)nn3)CC2)cc1Cl` [EAR26, N-((1r,4r)-4-(3-Chloro-4-cyanophenoxy)cyclohexyl)-6-(4-((4-((4-(2,4-dioxotetrahydropyrimidin-1(2H)-yl)-1H-indol-1-yl)methyl)piperidin-1-yl)methyl)piperidin-1-yl)pyridazine-3-carboxamide hydrochloride] the Dmax was ≥ 50%.
For `N#Cc1ccc(O[C@H]2CC[C@H](NC(=O)c3ccc(N4CCC(N5CCC(Cn6ccc7c(N8CCC(=O)NC8=O)cccc76)CC5)CC4)nn3)CC2)cc1Cl` [EAR27, N-((1r,4r)-4-(3-Chloro-4-cyanophenoxy)cyclohexyl)-6-(4-((4-(2,4-dioxotetrahydropyrimidin-1(2H)-yl)-1H-indol-1-yl)methyl)-[1,4′-bipiperidin]-1′-yl)pyridazine-3-carboxamide hydrochloride], the Dmax was ≥ 50%.
In the case of `N#Cc1ccc(O[C@H]2CC[C@H](NC(=O)c3ccc(N4CCCC(N5CCC(n6ccc7c(N8CCC(=O)NC8=O)cccc76)CC5)C4)cc3)CC2)cc1Cl` (stereo partly drawn) [EAR28, N-((1r,4r)-4-(3-Chloro-4-cyanophenoxy)cyclohexyl)-4-(4-(4-(2,4-dioxotetrahydropyrimidin-1(2H)-yl)-1H-indol-1-yl)-[1,3′-bipiperidin]-1′-yl)benzamide], the Dmax is reported as ≥ 50%.
For `N#Cc1ccc(O[C@H]2CC[C@H](NC(=O)c3ccc(N4CCC(CN5CCC(n6ccc7c(N8CCC(=O)NC8=O)cc(F)cc76)CC5)CC4)nn3)CC2)cc1Cl` [EAR31, N-((1r,4r)-4-(3-Chloro-4-cyanophenoxy)cyclohexyl)-6-(4-((4-(4-(2,4-dioxotetrahydropyrimidin-1(2H)-yl)-6-fluoro-1H-indol-1-yl)piperidin-1-yl)methyl)piperidin-1-yl)pyridazine-3-carboxamide hydrochloride], the Dmax was ≥ 50%.
With `N#Cc1ccc(O[C@H]2CC[C@H](NC(=O)c3ccc(N4CCC(CN5CCC(n6ccc7c(N8CCC(=O)NC8=O)cc(Cl)cc76)CC5)CC4)nn3)CC2)cc1Cl` [EAR32, 6-(4-((4-(6-Chloro-4-(2,4-dioxotetrahydropyrimidin-1(2H)-yl)-1H-indol-1-yl)piperidin-1-yl)methyl)piperidin-1-yl)-N-((1r,4r)-4-(3-chloro-4-cyanophenoxy)cyclohexyl)pyridazine-3-carboxamide hydrochloride] the Dmax was ≥ 50%.
For `N#Cc1ccc(O[C@H]2CC[C@H](NC(=O)c3ccc(N4CCC(CN5CCC(n6ncc7c(N8CCC(=O)NC8=O)cc(F)cc76)CC5)CC4)nn3)CC2)cc1Cl` [EAR33, N-((1r,4r)-4-(3-Chloro-4-cyanophenoxy)cyclohexyl)-6-(4-((4-(4-(2,4-dioxotetrahydropyrimidin-1(2H)-yl)-6-fluoro-1H-indazol-1-yl)piperidin-1-yl)methyl)piperidin-1-yl)pyridazine-3-carboxamide], the Dmax was ≥ 50%.
`N#Cc1ccc(O[C@H]2CC[C@H](NC(=O)c3ccc(N4CCC(CN5CCC(n6ncc7c(N8CCC(=O)NC8=O)cc(Cl)cc76)CC5)CC4)nn3)CC2)cc1Cl` [EAR34, 6-(4-((4-(6-Chloro-4-(2,4-dioxotetrahydropyrimidin-1(2H)-yl)-1H-indazol-1-yl)piperidin-1-yl)methyl)piperidin-1-yl)-N-((1r,4r)-4-(3-chloro-4-cyanophenoxy)cyclohexyl)pyridazine-3-carboxamide hydrochloride] was tested, and the Dmax was ≥ 50%.
